ChEMBL document CHEMBL1201862, “PubChem BioAssay data set” (2004)
Where a name gives a salt, the structure may show the parent alone.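 Following 48 hours of exposure in 96-well plates, responses at five concentrations were used to interpolate endpoints linearly. At the GI50, growth is halved.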 Calls of active or inactive are those of the source. Rule as the data show it: active = GI50 up to about 1.1 µM and inactive = higher.

Legend:
Experiment in all cases: growth of human tumour cells (NCI), 48 h
A549 = test system: A549
CAKI-1 = test system: CAKI-1
HL-60 = test system: HL-60
HT-29 = test system: HT-29
K562 = test system: K562
KM12 = test system: KM12
LOX IMVI = test system: LOX IMVI
M19-MEL = test system: M19-MEL
Malme-3M = test system: Malme-3M
OVCAR-5 = test system: OVCAR-5
SF-268 = test system: SF-268
SK-MEL-28 = test system: SK-MEL-28
SK-OV-3 = test system: SK-OV-3
SN12C = test system: SN12C
UACC-257 = test system: UACC-257
DMS-273 = test system: DMS-273
SR = test system: SR
DU-145 = test system: DU-145
MDA-MB-231 = test system: MDA-MB-231
MDA-N = test system: MDA-N

Measured: GI50

CC1=NN(C(=O)c2ccc(Cl)cc2)C(=O)/C1=C/c1ccccc1O
inactive: A549 > 100 µM | CAKI-1 > 100 µM | HL-60 > 100 µM | HT-29 > 100 µM | K562 > 100 µM | KM12 > 100 µM | LOX IMVI > 100 µM | M19-MEL > 100 µM | Malme-3M > 100 µM | OVCAR-5 > 100 µM | SF-268 > 100 µM | SK-MEL-28 > 100 µM | SK-OV-3 > 100 µM | SN12C > 100 µM | UACC-257 > 100 µM

O=C1c2ccccc2C(=O)c2[nH]c(Cc3ccccc3F)nc21
inactive: A549 52.7 µM | CAKI-1 86.7 µM | DMS-273 34.6 µM | HL-60 35.6 µM | HT-29 32.1 µM | K562 > 100 µM | KM12 38.9 µM | Malme-3M 40.7 µM | SF-268 40.7 µM | SK-MEL-28 > 100 µM | SN12C > 100 µM | SR 68.2 µM | UACC-257 44.9 µM

CN1C(=O)CNS1(=O)=O
inactive: A549 > 100 µM | DMS-273 > 100 µM | HL-60 > 100 µM | HT-29 > 100 µM | K562 > 100 µM | KM12 > 100 µM | LOX IMVI > 100 µM | Malme-3M > 100 µM | OVCAR-5 > 100 µM | SF-268 > 100 µM | SK-MEL-28 > 100 µM | SK-OV-3 > 100 µM | SN12C > 100 µM | SR > 100 µM | UACC-257 > 100 µM

C=CCO/N=C(\OC(=O)c1ccc([N+](=O)[O-])cc1)c1ccccc1
inactive: A549 > 100 µM | CAKI-1 > 100 µM | DMS-273 > 100 µM | HT-29 > 100 µM | K562 > 100 µM | KM12 > 100 µM | M19-MEL > 100 µM | Malme-3M > 100 µM | OVCAR-5 > 100 µM | SF-268 > 100 µM | SK-MEL-28 > 100 µM | SK-OV-3 > 100 µM | SN12C > 100 µM

NC(CCC(=O)NC(CSSCCCCS(=O)O)C(=O)NCC(=O)O)C(=O)O (stereo not drawn)
inactive: A549 > 100 µM | CAKI-1 > 100 µM | DMS-273 > 100 µM | HT-29 > 100 µM | K562 > 100 µM | KM12 > 100 µM | LOX IMVI > 100 µM | M19-MEL > 100 µM | Malme-3M > 100 µM | OVCAR-5 > 100 µM | SF-268 > 100 µM | SK-MEL-28 > 100 µM | SK-OV-3 > 100 µM | SN12C > 100 µM | UACC-257 > 100 µM

c1ccc([C@H]2CN3CCSC3=N2)cc1 [LEVAMISOLE HYDROCHLORIDE]
inactive: A549 > 100 µM | CAKI-1 > 100 µM | DU-145 > 100 µM | HL-60 > 100 µM | HT-29 > 100 µM | K562 > 100 µM | KM12 > 100 µM | LOX IMVI > 100 µM | MDA-MB-231 > 100 µM | MDA-N > 100 µM | Malme-3M > 100 µM | OVCAR-5 > 100 µM | SF-268 > 100 µM | SK-MEL-28 > 100 µM | SK-OV-3 > 100 µM | SN12C > 100 µM | SR > 100 µM | UACC-257 > 100 µM

Oc1ccc(Cl)cc1/C=N/c1cnc2ccccc2c1
inactive: A549 > 92.7 µM | CAKI-1 > 100 µM | DU-145 41.5 µM | HL-60 4.56 µM | HT-29 36.6 µM | K562 10.2 µM | KM12 30.6 µM | LOX IMVI 8.17 µM | MDA-MB-231 32.6 µM | MDA-N 34.7 µM | Malme-3M > 70.6 µM | OVCAR-5 > 100 µM | SF-268 29.1 µM | SK-MEL-28 > 68.9 µM | SK-OV-3 33.3 µM | SN12C 30.3 µM | SR 18.8 µM | UACC-257 5.01 µM

C=C(Br)CNCC(=C)Br
inactive: A549 > 100 µM | CAKI-1 > 100 µM | DU-145 > 100 µM | HL-60 26.7 µM | HT-29 90.6 µM | K562 38 µM | KM12 > 100 µM | LOX IMVI > 100 µM | MDA-MB-231 > 100 µM | MDA-N > 100 µM | Malme-3M 93.1 µM | OVCAR-5 > 100 µM | SF-268 > 100 µM | SK-MEL-28 > 100 µM | SK-OV-3 > 100 µM | SN12C > 100 µM | SR > 100 µM | UACC-257 29 µM

O=C1C=C(NCCc2cc(Br)c(O)c(Br)c2)C(=O)c2[nH]cnc21
inactive: A549 32 µM | CAKI-1 39.9 µM | DU-145 36.7 µM | HL-60 > 10 µM | HT-29 26.9 µM | K562 14.9 µM | KM12 48.5 µM | LOX IMVI 21.5 µM | MDA-MB-231 29.4 µM | MDA-N 18.6 µM | Malme-3M 15 µM | OVCAR-5 29.9 µM | SF-268 49 µM | SK-MEL-28 39.7 µM | SK-OV-3 41.2 µM | SN12C 26.2 µM | SR 32.4 µM | UACC-257 5.6 µM

CC(=O)C(CN(Cc1ccccc1)Cc1ccccc1)C(c1ccccc1)c1c(O)c2ccccc2oc1=O (stereo not drawn)
inactive: A549 > 100 µM | CAKI-1 > 100 µM | HL-60 > 100 µM | HT-29 > 100 µM | K562 > 100 µM | KM12 > 100 µM | LOX IMVI > 100 µM | M19-MEL > 100 µM | Malme-3M > 100 µM | OVCAR-5 > 100 µM | SF-268 > 100 µM | SK-OV-3 > 100 µM | SN12C > 100 µM | SR > 100 µM | UACC-257 > 100 µM

COc1ccc2ccccc2c1C1=NC(C)(C)CO1
inactive: A549 > 100 µM | CAKI-1 > 100 µM | HL-60 > 100 µM | HT-29 > 100 µM | K562 > 100 µM | KM12 > 100 µM | M19-MEL > 100 µM | Malme-3M > 100 µM | SF-268 > 100 µM | SK-MEL-28 > 100 µM | SK-OV-3 > 100 µM | SN12C > 100 µM | SR > 100 µM | UACC-257 > 100 µM

O=C1CC(n2ccnc2)c2c(Cl)sc(Cl)c21 (stereo not drawn)
inactive: A549 24.5 µM | CAKI-1 19.5 µM | DU-145 16.1 µM | HL-60 51.8 µM | HT-29 19.8 µM | K562 7.89 µM | KM12 15.6 µM | LOX IMVI 6.3 µM | MDA-MB-231 18.9 µM | MDA-N 16.2 µM | Malme-3M 17.4 µM | OVCAR-5 22.5 µM | SF-268 21.9 µM | SK-MEL-28 23.7 µM | SK-OV-3 23.1 µM | SN12C 17.7 µM | SR 2.92 µM | UACC-257 15.5 µM

O=[N+]([O-])c1ccc(CSc2c3ccccc3nc3ccccc23)cc1
inactive: A549 23.9 µM | CAKI-1 15.4 µM | DU-145 2.3 µM | HL-60 2.52 µM | HT-29 2.28 µM | K562 5.01 µM | KM12 4.62 µM | LOX IMVI 2.93 µM | MDA-MB-231 13.5 µM | MDA-N 9.86 µM | Malme-3M 2.34 µM | OVCAR-5 15.3 µM | SF-268 7.64 µM | SK-MEL-28 4.67 µM | SK-OV-3 22 µM | SN12C 3.52 µM | SR 3.13 µM | UACC-257 3.33 µM
